Measurements reported in patent EP1080728A1, “PROSTAGLANDIN EP4 RECEPTOR AGONIST AND TREATMENT METHOD” (TORAY INDUSTRIES, INC., priority 1999, dated 2000).

Columns and labels:
[1] = system: human normal lung fibroblast cells; assay: Effects on collagen production in human normal lung fibroblast cells (TGF-β1 stimulated, Siricol Collagen Assay Kit); type: cell-based; settings: compound 1 µM with TGF-β1 5 ng/ml, incubated for 24 hours; salt-soluble collagen; Reference (without compound): 1.1 µg/100,000 cells
Method: The suppression action of the compound represented by the formula (II) on the collagen production from the fibroblast cells was confirmed by the following test method. After the human normal lung fibroblast cells were cultured for 48 hours under the condition of confluence (Eagle MEM culture medium with 0.45% FBS), the cells were added(1 µM) the compound represented by the formula (II) and transforming growth factor β1 (TGF-β1) at a concentration of 5 ng/ml, then incubated for 24 hours. The supernatant from the cell culture medium was concentrated by freeze-drying, and the amount of collagen (salt-soluble collagen) was […] assayed using Siricol Collagen Assay Kit (made by Biocolor Co.). The amounts of collagen in the supernatant were as follows: Reference: 1.1 µg/100,000 cells Compound (II): 0.5 µg/100,000 cells It was confirmed that production of collagen by TGF-β1 was suppressed by the compound according to the present invention.

[2] = target: T1, human EP4 receptor subtype (Homo sapiens, UniProt P35408); assay: Receptor binding study using PGE2 receptor subtype expression cells (3H-PGE2 displacement, membrane fraction); settings: human EP4 receptor transiently expressed in COS-7 cells, membrane fraction 10 µg/tube, 3H-PGE2 5 nM, 30°C for 1 hour; Ki = IC50/(1+[C]/Kd); read-out: DISSOCIATION CONSTANT Ki (nM) EP4
T1 construct: expressed in transfected cells; host or cells: COS-7 cells (transient expression), membrane fraction
T1 sequence (P35408 whole entry): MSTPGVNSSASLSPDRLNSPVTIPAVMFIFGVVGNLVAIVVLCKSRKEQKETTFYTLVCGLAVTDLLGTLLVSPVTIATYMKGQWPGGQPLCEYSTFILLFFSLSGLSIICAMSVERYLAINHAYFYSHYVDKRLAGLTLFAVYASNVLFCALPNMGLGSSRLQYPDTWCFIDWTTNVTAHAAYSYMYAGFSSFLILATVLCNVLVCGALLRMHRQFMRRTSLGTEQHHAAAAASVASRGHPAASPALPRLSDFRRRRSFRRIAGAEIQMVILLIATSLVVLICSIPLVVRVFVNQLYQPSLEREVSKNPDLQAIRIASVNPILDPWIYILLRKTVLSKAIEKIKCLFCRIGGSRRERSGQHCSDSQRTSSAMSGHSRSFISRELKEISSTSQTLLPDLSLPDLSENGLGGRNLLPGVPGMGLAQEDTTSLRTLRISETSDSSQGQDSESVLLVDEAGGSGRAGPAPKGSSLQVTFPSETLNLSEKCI
Method: The compound represented by the following formula (II) among the compounds represented by the general formula (I) strongly binds to the EP4 receptor as a subtype of the PGE2 receptor. The binding activity was confirmed in comparison with PGE2 by an experiment using the PGE2 receptor subtype expression cells. [drawing 2]
The experiment was carried out according to the previous report [Breyer, R. M. et al., J. Biol. Chem. 269, 6163-6169 (1994)], wherein the human EP4 receptor subtype was transiently expressed using COS-7 cells. These cells were prepared as membrane samples. The membrane fraction prepared (10 µg/tube) was incubated with reaction solution containing ^3H-PGE2 at 30°C for 1 hour. The reaction was terminated with ice-cold buffer [10mM MES (pH6.0), 10mM MgCl2, 1mM EDTA], and the bound ^3H-PGE2 was trapped on a glass filter (GF/C) by vacuum filtration under a reduced pressure, followed by counting the radioactivity with a liquid scintillator.
The Kd value and Bmax were determined from a Scatchard plot according to the conventional method. The non-specific binding was determined by the amount of binding in the presence of an excess amount (5 µM) on the non-labeled PGE2. Inhibitory action of the ^3H-PGE2 binding by the compound to be tested was determined at a concentration of ^3H-PGE2 of 5 nM by adding various concentrations of the compound to be tested. […]

O=C(O)CCc1cccc2c1O[C@H]1C[C@@H](O)[C@H](/C=C/[C@@H](O)CC3CCCCC3)[C@@H]21 [COMPOUND (II)]
amounts of collagen in the supernatant [1]: 0.5 µg/100,000 cells | Ki [2]: 19 nM
